Measured values from patent publication US9783511B2, “Carbamate benzoxazine propionic acids and acid derivatives for modulation of RORgamma activity and the treatment of disease” (Merck Sharp & Dohme Corp., priority 2013, dated 2017).

Biological target: human RORgammaT-Ligand Binding Domain (LBD) (Homo sapiens (Human), UniProt P51449)
Experiment: RORγ-Ligand Binding Domain TR-FRET Assay (co-activator peptide SRC1_2 recruitment)
Assay type: biochemical
Conditions: HIS-tagged RORγ-LBD 3 nM, biotinylated SRC1 LXXLL peptide 100 nM, incubated overnight at 4° C., 665 nm/615 nm ratio
Excerpt: Activation of RORgammaT activity can be measured using, e.g., a biochemical TR-FRET assay. In such an assay, interaction of cofactor-derived peptides with human RORgammaT-Ligand Binding Domain (LBD) can be measured.
To identify novel antagonists of RORgammaT, an assay was developed which employs the interaction of RORgammaT with its co-activator peptide SRC1_2. […] The RORγ-Ligand Binding Domain TR-FRET Assay was run according to the following protocol.
HIS-tagged RORγ-LBD protein was recombinantly expressed in Escherichia coli. The RORγ-LBD protein was purified by Ni^2+-affinity resin. Purified protein was then diluted in assay buffer (50 mM Tris pH 7.0, 50 mM KCl, 1 mM EDTA, 0.1 mM DTT, 100 μg/mL bovine serum albumin, delipidated) to obtain a RORγ-LBD final concentration of 3 nM.
Compounds to be tested were injected to the 384-well assay plate using Acoustic Droplet Ejection technology by Echo 550 liquid handler (Labcyte, CA).

human RORgammaT-Ligand Binding Domain (LBD), sequence (P51449 269-508): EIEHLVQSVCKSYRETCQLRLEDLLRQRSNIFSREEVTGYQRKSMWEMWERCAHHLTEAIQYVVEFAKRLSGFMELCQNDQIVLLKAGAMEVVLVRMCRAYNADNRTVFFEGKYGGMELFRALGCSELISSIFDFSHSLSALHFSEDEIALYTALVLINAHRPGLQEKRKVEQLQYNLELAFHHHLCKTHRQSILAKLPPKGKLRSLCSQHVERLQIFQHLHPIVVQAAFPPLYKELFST

Compound | IC50 [nM]
Cc1nn(C(F)F)cc1S(=O)(=O)N1C[C@H](C[C@@H](C)C(=O)O)Oc2ccc(NC(=O)OC(C)(C)C(F)(F)F)cc21 (single isomer, unassigned) [Example 6BG, (R or S)-3-((S)-4-((1-(difluoromethyl)-3-methyl-1H-pyrazol-4-yl)sulfonyl)-6-((((1,1,1-trifluoro-2-methylpropan-2-yl)oxy)carbonyl)amino)-3,4-dihydro-2H-benzo[b][1,4]oxazin-2-yl)-2-methylpropanoic acid] | 13.3
Cc1ccc(S(=O)(=O)N2C[C@H](CCC(=O)O)Oc3ccc(NC(=O)OC(C)(C)C(F)(F)F)cc32)cc1Cl [Example 6AJ, (S)-3-(4-((3-chloro-4-methylphenyl)sulfonyl)-6-((((1,1,1-trifluoro-2-methylpropan-2-yl)oxy)carbonyl)amino)-3,4-dihydro-2H-benzo[b][1,4]oxazin-2-yl)propanoic acid] | 14
CCc1nc(S(=O)(=O)N2C[C@H](CCC(=O)O)Oc3ccc(NC(=O)OC(C)(C)C(F)(F)F)cc32)c(OC(C)C)s1 [Example 6CF, 3-[(2S)-4-{[2-ethyl-5-(1-methylethoxy)-1,3-thiazol-4-yl]sulfonyl}-6-{[(2,2,2-trifluoro-1,1-dimethylethoxy)carbonyl]amino}-3,4-dihydro-2H-1,4-benzoxazin-2-yl]propanoic acid] | 20
CC(C)(OC(=O)Nc1ccc2c(c1)N(S(=O)(=O)c1ccc(F)c(C(F)(F)F)c1)C[C@H]([C@@H](CC(=O)O)C1CC1)O2)C(F)(F)F (single isomer, unassigned) [Example 21A, (S or R)-3-cyclopropyl-3-((S)-4-((4-fluoro-3-(trifluoromethyl)phenyl)sulfonyl)-6-((((1,1,1-trifluoro-2-methylpropan-2-yl)oxy)carbonyl)amino)-3,4-dihydro-2H-benzo[b][1,4]oxazin-2-yl)propanoic acid] | 28
CC(C)(OC(=O)Nc1ccc2c(c1)N(S(=O)(=O)c1ccc(F)c(C(F)(F)F)c1)C[C@H]([C@@H]1C[C@@H]1C(=O)O)O2)C(F)(F)F [Example 22B, (1S,2R)-2-((S)-4-((4-fluoro-3-(trifluoromethyl)phenyl)sulfonyl)-6-((((1,1,1-trifluoro-2-methylpropan-2-yl)oxy)carbonyl)amino)-3,4-dihydro-2H-benzo[b][1,4]oxazin-2-yl)cyclopropanecarboxylic acid] | 13.5
CC(C)(OC(=O)Nc1ccc2c(c1)N(S(=O)(=O)c1ccc(Cl)cn1)C[C@H](CCC(=O)O)O2)C(F)(F)F [Example 6AL, (S)-2-((2-(2-carboxyethyl)-6-((((1,1,1-trifluoro-2-methylpropan-2-yl)oxy)carbonyl)amino)-2H-benzo[b][1,4]oxazin-4(3H)-yl)sulfonyl)-5-chloropyridine] | 15
CC[C@H](C[C@H]1CN(S(=O)(=O)c2cn(CC)nc2OCCO)c2cc(NC(=O)OC(C)(C)C(F)(F)F)ccc2O1)C(=O)O (single isomer, unassigned) [Example 10L, (R or S)-2-(((S)-4-((1-ethyl-3-(2-hydroxyethoxy)-1H-pyrazol-4-yl)sulfonyl)-6-((((1,1,1-trifluoro-2-methylpropan-2-yl)oxy)carbonyl)amino)-3,4-dihydro-2H-benzo[b][1,4]oxazin-2-yl)methyl)butanoic acid] | 49.5
CC[C@H](C[C@H]1CN(S(=O)(=O)c2cccc(C3CC3)c2)c2cc(NC(=O)OC(C)(C)C(F)(F)F)ccc2O1)C(=O)O (single isomer, unassigned) [Example 10D, (R or S)-2-(((S)-4-((3-cyclopropylphenyl)sulfonyl)-6-((((1,1,1-trifluoro-2-methylpropan-2-yl)oxy)carbonyl)amino)-3,4-dihydro-2H-benzo[b][1,4]oxazin-2-yl)methyl)butanoic acid] | 12.8
COc1cc(S(=O)(=O)N2C[C@H](CCC(=O)O)Oc3ccc(NC(=O)O[C@H](C)C(C)(C)C)cc32)ccc1F (single isomer, unassigned) [Example 24D, 3-{(2S)-4-[(4-fluoro-3-methoxyphenyl)sulfonyl]-6-[({[(1S or 1R)-1,2,2-trimethylpropyl]oxy}cxarbonyl)amino]-3,4-dihydro-2H-1,4-benzoxazin-2-yl}propanoic acid] | 3.73
C[C@H](C[C@H]1CN(S(=O)(=O)c2cn(C(F)F)nc2Cl)c2cc(NC(=O)OC(C)(C)C(F)(F)F)ccc2O1)C(=O)O (single isomer, unassigned) [Example 6DD, (R or S)-3-((S)-4-((3-chloro-1-(difluoromethyl)-1H-pyrazol-4-yl)sulfonyl)-6-((((1,1,1-trifluoro-2-methylpropan-2-yl)oxy)carbonyl)amino)-3,4-dihydro-2H-benzo[b][1,4]oxazin-2-yl)-2-methylpropanoic acid] | 23.6
CC(C)(OC(=O)Nc1ccc2c(c1)N(S(=O)(=O)c1cccc(C3CC3)c1)C[C@@H](CC1(C(=O)O)CC1)O2)C(F)(F)F [Example 14D, (R)-1-((4-((3-cyclopropylphenyl)sulfonyl)-6-((((1,1,1-trifluoro-2-methylpropan-2-yl)oxy)carbonyl)amino)-3,4-dihydro-2H-benzo[b][1,4]oxazin-2-yl)mehtyl)cyclopropanecarboxy-lic acid] | 36.7
CCc1nc(S(=O)(=O)N2C[C@H](C[C@@H](C)C(=O)O)Oc3ccc(NC(=O)OC(C)(C)C(F)(F)F)cc32)c(OCC(F)(F)F)s1 (single isomer, unassigned) [Example 6BR, (R or S)-3-((S)-4-((2-ethyl-5-(2,2,2-trifluoroethoxy)thiazol-4-yl)sulfonyl)-6-((((1,1,1-trifluoro-2-methylpropan-2-yl)oxy)carbonyl)amino)-3,4-dihydro-2H-benzo[b][1,4]oxazin-2-yl)-2-methylpropanoic acid] | 12.3
COc1cncc(S(=O)(=O)N2C[C@H](CCC(=O)O)Oc3ccc(NC(=O)OC(C)(C)C(F)(F)F)cc32)c1 [Example 6BY, 3-[(2S)-4-[(5-methoxypyridin-3-yl)sulfonyl]-6-{[(2,2,2-trifluoro-1,1-dimethylethoxy)carbonyl]amino}-3,4-dihydro-2H-1,4-benzoxazin-2-yl]propanoic acid] | 27.1
CC[C@@H](C[C@H]1CN(S(=O)(=O)c2cccc(C3CC3)c2)c2cc(NC(=O)OC(C)(C)C(F)(F)F)ccc2O1)C(=O)O (single isomer, unassigned) [Example 10F, (R or S)-2-(((S)-4-((3-cyclopropylphenyl)sulfonyl)-6-((((1,1,1-trifluoro-2-methylpropan-2-yl)oxy)carbonyl)amino)-3,4-dihydro-2H-benzo[b][1,4]oxazin-2-yl)methyl)butanoic acid] | 13.3
Cc1nn(C(F)F)cc1S(=O)(=O)N1C[C@H](CCC(=O)O)Oc2ccc(NC(=O)OC(C)(C)C(F)(F)F)cc21 [Example 6AX, (S)-4-((2-(2-carboxyethyl)-6-((((1,1,1-trifluoro-2-methylpropan-2-yl)oxy)carbonyl)amino)-2H-benzo[b][1,4]oxazin-4(3H)-yl)sulfonyl)-1-(difluoromethyl)-3-methyl-1H-pyrazole] | 9.92
COc1cc(C)ccc1S(=O)(=O)N1C[C@H](CCC(=O)O)Oc2ccc(NC(=O)OC(C)(C)C(F)(F)F)cc21 [Example 6AQ, (S)-3-(4-((2-methoxy-4-methylphenyl)sulfonyl)-6-((((1,1,1-trifluoro-2-methylpropan-2-yl)oxy)carbonyl)amino)-3,4-dihydro-2H-benzo[b][1,4]oxazin-2-yl)propanoic acid] | 17.1
CC(C)(OC(=O)Nc1ccc2c(c1)N(S(=O)(=O)c1c(Cl)nc3sccn13)C[C@H](CCC(=O)O)O2)C(F)(F)F [Example 6AF, (S)-5-((2-(2-carboxyethyl)-6-((((1,1,1-trifluoro-2-methylpropan-2-yl)oxy)carbonyl)amino)-2H-benzo[b][1,4]oxazin-4(3H)-yl)sulfonyl)-6-chloroimidazo[2,1-b]thiazole] | 6.2
CC(C)(OC(=O)Nc1cc(F)c2c(c1)N(S(=O)(=O)c1ccc(F)c(C(F)(F)F)c1)C[C@H](CCC(=O)O)O2)C(F)(F)F [Example 28, (S)-3-(8-fluoro-4-((4-fluoro-3-(trifluoromethyl)phenyl)sulfonyl)-6-((((1,1,1-trifluoro-2-methylpropan-2-yl)oxy)carbonyl)amino)-3,4-dihydro-2H-benzo[b][1,4]oxazin-2-yl)propanoic acid] | 10.2
CC(C)(OC(=O)Nc1ccc2c(c1)N(S(=O)(=O)c1cccc(C3CC3)c1)C[C@H](CCC(=O)O)O2)C(F)(F)F [Example 6AC, (S)-3-(4-((3-cyclopropylphenyl)sulfonyl)-6-((((1,1,1-trifluoro-2-methylpropan-2-yl)oxy)carbonyl)amino)-3,4-dihydro-2H-benzo[b][1,4]oxazin-2-yl)propanoic acid] | 8
CCOc1sc(CC)nc1S(=O)(=O)N1C[C@H](C[C@@H](C)C(=O)O)Oc2ccc(NC(=O)OC(C)(C)C(F)(F)F)cc21 (single isomer, unassigned) [Example 6Bo, (R or S)-3-((S)-4-((5-ethoxy-2-ethylthiazol-4-yl)sulfonyl)-6-((((1,1,1-trifluoro-2-methylpropan-2-yl)oxy)carbonyl)amino)-3,4-dihydro-2H-benzo[b][1,4]oxazin-2-yl)-2-methylpropanoic acid] | 11.9
